According to PMC3265371 (Nature Communications, 2011):
Read-outs that look alike come from different tables or passages of the source. Blank lines part the entries; values can stand above or below the molecule they belong to.

Key:
[1] = biological target: T1, CNGA1-ΔCLZ (homomeric channel) (Bos taurus, UniProt Q00194, DEL609-693); assay: inside-out patch clamp, block of cGMP-activated current; format: cell-based
T1 sequence (Q00194 1-608): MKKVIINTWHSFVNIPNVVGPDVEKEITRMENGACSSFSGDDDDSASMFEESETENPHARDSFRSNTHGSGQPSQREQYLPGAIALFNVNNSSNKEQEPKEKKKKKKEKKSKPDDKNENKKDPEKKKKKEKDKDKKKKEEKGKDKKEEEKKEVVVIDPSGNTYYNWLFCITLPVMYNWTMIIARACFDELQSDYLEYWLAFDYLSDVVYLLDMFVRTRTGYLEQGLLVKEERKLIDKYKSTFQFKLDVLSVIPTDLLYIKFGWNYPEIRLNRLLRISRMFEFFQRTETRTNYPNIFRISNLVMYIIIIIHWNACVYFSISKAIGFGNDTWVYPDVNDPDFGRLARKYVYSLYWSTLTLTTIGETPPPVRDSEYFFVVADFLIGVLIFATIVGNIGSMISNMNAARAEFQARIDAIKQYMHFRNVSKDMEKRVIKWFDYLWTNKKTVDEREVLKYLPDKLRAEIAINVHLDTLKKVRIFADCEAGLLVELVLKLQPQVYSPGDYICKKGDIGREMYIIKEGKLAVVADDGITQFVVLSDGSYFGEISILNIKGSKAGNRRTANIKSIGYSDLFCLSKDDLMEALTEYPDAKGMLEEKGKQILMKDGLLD

[2] = biological target: CNGA1+CNGB1 (heteromeric rod CNG channel) (Bos taurus, UniProt Q00194+Q28181); assay: as above; format: cell-based
CNGA1+CNGB1 (heteromeric rod CNG channel), sequence (Q28181 whole entry, one chain of several): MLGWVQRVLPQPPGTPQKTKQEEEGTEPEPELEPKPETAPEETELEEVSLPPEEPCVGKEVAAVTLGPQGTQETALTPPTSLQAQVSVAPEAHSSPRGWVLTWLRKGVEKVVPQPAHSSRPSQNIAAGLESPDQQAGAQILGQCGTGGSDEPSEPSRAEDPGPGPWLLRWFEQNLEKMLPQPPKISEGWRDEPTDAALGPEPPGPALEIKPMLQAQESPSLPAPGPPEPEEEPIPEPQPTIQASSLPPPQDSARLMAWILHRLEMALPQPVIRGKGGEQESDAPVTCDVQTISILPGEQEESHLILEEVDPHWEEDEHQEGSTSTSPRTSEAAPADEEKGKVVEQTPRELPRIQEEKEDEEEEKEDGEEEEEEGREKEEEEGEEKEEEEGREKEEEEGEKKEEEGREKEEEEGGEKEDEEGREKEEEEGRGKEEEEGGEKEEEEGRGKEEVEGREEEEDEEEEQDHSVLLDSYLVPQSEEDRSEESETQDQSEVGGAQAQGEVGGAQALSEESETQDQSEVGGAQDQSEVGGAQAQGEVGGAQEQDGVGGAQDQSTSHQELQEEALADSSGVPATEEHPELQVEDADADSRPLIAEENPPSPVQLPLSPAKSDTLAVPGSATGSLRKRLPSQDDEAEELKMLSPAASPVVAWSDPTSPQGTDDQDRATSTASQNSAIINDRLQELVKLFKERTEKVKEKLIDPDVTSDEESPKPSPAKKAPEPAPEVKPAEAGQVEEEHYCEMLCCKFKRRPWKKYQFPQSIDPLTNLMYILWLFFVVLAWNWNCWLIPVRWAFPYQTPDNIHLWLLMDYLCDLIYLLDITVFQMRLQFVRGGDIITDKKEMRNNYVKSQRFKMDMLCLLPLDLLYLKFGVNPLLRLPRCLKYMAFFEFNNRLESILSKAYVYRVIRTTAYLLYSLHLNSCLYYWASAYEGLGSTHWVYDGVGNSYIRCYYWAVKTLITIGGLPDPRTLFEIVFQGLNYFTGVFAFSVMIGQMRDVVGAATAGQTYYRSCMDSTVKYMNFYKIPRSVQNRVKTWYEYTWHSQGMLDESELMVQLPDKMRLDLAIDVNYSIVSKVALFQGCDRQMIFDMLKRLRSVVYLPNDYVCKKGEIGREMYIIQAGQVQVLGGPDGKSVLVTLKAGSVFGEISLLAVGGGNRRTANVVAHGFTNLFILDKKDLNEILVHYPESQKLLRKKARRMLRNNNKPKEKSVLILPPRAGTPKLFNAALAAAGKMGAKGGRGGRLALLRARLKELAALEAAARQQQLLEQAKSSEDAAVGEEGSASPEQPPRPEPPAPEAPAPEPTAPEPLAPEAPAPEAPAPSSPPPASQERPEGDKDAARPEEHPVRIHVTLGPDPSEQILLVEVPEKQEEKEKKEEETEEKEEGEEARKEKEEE

CNGA1+CNGB1-ΔN = CNGA1+CNGB1-ΔN (Bos taurus, UniProt Q00194+Q28181, DEL2-765); assay: as above; format: cell-based
CNGA1+CNGB1-ΔN, sequence (Q28181 766-1394, stated change not applied, one chain of several): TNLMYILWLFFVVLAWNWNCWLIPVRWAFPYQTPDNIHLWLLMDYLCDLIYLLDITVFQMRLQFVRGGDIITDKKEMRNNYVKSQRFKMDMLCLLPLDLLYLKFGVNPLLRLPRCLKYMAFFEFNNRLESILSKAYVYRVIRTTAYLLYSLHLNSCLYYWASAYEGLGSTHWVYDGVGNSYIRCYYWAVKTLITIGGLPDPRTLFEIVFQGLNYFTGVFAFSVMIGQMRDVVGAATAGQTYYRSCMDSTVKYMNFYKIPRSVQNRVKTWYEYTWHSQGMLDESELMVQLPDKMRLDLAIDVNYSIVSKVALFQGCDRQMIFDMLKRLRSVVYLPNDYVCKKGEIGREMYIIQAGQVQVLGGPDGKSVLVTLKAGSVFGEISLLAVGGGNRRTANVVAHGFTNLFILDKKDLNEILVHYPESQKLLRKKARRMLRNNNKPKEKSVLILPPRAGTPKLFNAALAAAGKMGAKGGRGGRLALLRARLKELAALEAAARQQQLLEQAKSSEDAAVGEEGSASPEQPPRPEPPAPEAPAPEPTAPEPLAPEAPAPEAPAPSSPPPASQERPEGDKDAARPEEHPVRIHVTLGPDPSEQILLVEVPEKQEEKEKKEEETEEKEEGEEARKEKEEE

[3] = biological target: T2, CNGA1 (homomeric channel) (Bos taurus, UniProt Q00194); assay: as above; format: cell-based
T2 sequence (Q00194 1-690): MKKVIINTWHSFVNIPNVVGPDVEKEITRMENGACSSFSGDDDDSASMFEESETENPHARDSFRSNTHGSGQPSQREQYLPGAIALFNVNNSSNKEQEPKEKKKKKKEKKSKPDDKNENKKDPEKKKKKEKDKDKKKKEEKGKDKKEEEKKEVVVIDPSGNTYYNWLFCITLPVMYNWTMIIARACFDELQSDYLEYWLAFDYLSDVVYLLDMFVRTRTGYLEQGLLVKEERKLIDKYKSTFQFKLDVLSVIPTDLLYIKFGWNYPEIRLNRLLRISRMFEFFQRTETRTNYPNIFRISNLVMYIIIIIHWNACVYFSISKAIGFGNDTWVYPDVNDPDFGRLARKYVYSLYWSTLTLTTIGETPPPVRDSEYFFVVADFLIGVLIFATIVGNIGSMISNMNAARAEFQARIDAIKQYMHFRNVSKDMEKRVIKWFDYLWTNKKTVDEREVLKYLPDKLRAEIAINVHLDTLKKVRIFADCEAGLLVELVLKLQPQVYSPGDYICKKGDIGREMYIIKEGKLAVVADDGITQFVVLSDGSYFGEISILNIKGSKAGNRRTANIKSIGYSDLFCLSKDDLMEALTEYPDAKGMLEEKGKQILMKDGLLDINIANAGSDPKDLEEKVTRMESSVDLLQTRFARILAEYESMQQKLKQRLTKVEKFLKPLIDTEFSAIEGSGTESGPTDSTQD

[4] = biological target: T2, CNGA1 (homomeric channel); assay: inside-out patch clamp, activated current; format: biochemical; settings: 2.5 mM cGMP, ±60 mV, pH 7.2; activation, saturating
[5] = biological target: the molecule itself
SEC-MALS = biological target: the molecule itself; assay: SEC-MALS

IC50 [1]: 164 ± 8.2 µM | IC50 [2]: 2.45 ± 0.28 µM | IC50 (CNGA1+CNGB1-ΔN): 1.4 ± 0.21 µM | IC50 [3]: 174 ± 7.2 µM
Molecule: COc1ccc([C@H]2Sc3ccccc3N(CCN(C)C)C(=O)[C@H]2OC(C)=O)cc1 [L-cis-diltiazem]

Molecule: Nc1nc2c(ncn2[C@@H]2O[C@@H]3COP(=O)(O)O[C@H]3[C@H]2O)c(=O)[nH]1 [cGMP]
inside-out patch clamp, activated current [4]: Homomeric channels of CNGA1 subunits are efficiently activated by saturating cGMP

Molecule: LEEKVEQLGSSLDTLQTRFARLLAEYNATQMKMKQRLSQLESQVKGG (domain or fragment, human, UniProt Q16281 626-672, looked up) [CNGA3#626–672]
stoichiometry N [5]: 3

B1: CNGA1#621–690 (domain or fragment, bovine, UniProt Q00194 621-690, looked up)
chain: LEEKVTRMESSVDLLQTRFARILAEYESMQQKLKQRLTKVEKFLKPLIDTEFSAIEGSGTESGPTDSTQD
stoichiometry N (SEC-MALS): 3

B2: CNGA3#626–694 (domain or fragment, human, UniProt Q16281 626-694, looked up)
chain: LEEKVEQLGSSLDTLQTRFARLLAEYNATQMKMKQRLSQLESQVKGGGDKPLADGEVPGDATKTEDKQQ
stoichiometry N (SEC-MALS): 3

Molecule: LEEKVTRMESSVDLLQTRFARILAEYESMQQKLKQRLTKVEKFLKPL (domain or fragment, bovine, UniProt Q00194 621-667, looked up) [CNGA1#621–667]
stoichiometry N [5]: 3
